# From patent US10927104B2, “Ether compounds and uses thereof” (BioTheryX, Inc., priority 2017, dated 2021)
# What was measured:
# Assay type in all cases: cell-based
# Molm-13 cells = assay: Cell viability assay (CellTiter-Glo), Molm-13 proliferation; conditions: Homo sapiens, MOLM-13, 72 h, 3 days; for inhibition at 10 µM: compound at 10 μM; for inhibition at 0.1 µM: compound at 0.1 μM; for inhibition at 1 µM: compound at 1 μM
# Protocol: (§1) Molm-13 and MV-4-11 cells were cultivated in RPMI-1640 (10% FBS/1% pen-strep) and were plated in white walled 96-well plates at 20,000 cells/well.
# (§2) Cells were treated with compound at the indicated concentration or DMSO (control) and the cultures were incubated for 3 days at 37° C. and 5% CO2. Following the incubation period, 100 μL of CellTiterGlow (CTG) reagent (CellTiter-Glo® Luminescent Cell Viability Assay, Promega (Madison, Wis.)) was added to each well. Following a 10 min incubation with shaking, luminescence was measured using a Victor Wallac Luminometer.
# IL-6 = assay: PBMC assay, LPS-induced IL-6 (Meso Scale); conditions: Homo sapiens, PBMCs, 100 ng/mL LPS 18-24 hrs; for inhibition at 0.1 µM: compound at 0.1 μM; for inhibition at 1 µM: compound at 1 μM; for inhibition at 10 µM: compound at 10 μM
# Protocol: (§3) FIG. 2 represents the activity against IL-6 in peripheral blood mononuclear cells (PBMCs), plated in 96 well plates and pretreated with compound for 1 hour and then induced with 100 ng/mL LPS for 18-24 hrs. Cytokines were measured according to MesoScale protocol. Negative control wells were treated with DMSO. Compound activity was measured as a percentage of LPS-induced activity.
# (§4) Frozen primary blood mononuclear cells (PBMCs) were purchased from AllCells. Cells were quick thawed, washed once with RPMI-1640/10% FBS.
# (§5) 1% Penicillin/1% Streptomycin and plated in 96 well plates at 200,000 cells per well. Cells were pretreated with DMSO only, or Compound 1 for 1 hour and then induced with 100 ng/mL lipopolysaccharide (LPS) for 18-24 hrs. The supernatant was analyzed for IL-1 beta, IL-6, and TNFα, using Meso Scale assay according to manufacturer's protocol. The negative control wells were treated with DMSO.
# (§6) Compound activity was measured as fold difference from the DMSO control. IL-1β activity is shown in FIG. 1; IL-6 activity is shown in FIG. 2; TNFα activity is shown in FIG. 3; and IL-2 activity is shown in FIG. 4. Additional data for compounds (shown as percent inhibition) at 10 μM is shown in Table 1; at 1 μM in Table 2; and at 0.1 μM in Table 3.
# IL-2 = assay: Anti-CD3-induced IL-2 secretion in PBMCs (Mesoscale); conditions: Homo sapiens, PBMC, anti-CD3 stimulated PBMCs, 24 hr, vs DMSO control, read-out: IL-2 Fold Change; for fold induction at 0.1 µM: compound at 0.1 μM; for fold induction at 1 µM: compound at 1 μM; for fold induction at 10 µM: compound 10 μM
# Protocol: FIG. 4 represents Anti-CD3-induced IL-2 secretion in PBMCs. 1 μg/mL anti-CD3 (OKT-3) antibody in PBS coated onto 96-well plates overnight at 4° C. Approximately, 550,000 PBMCs were added to each well, followed by addition of DMSO only (control) or Compound 1. Induction was measured after 24 hrs as fold difference from the DMSO stimulated control.
# as §4
# For the IL-2 analysis, 96 well plates were precoated with 1 μg/mL anti-human CD3 antibody (OKT3, eBioscience Inc.). After washing with PBS, Compound 1 was added (50 μL/well) followed by PBMCs diluted at 3-4 million cells/mL (150 μL/well). Plates were incubated for 24 hr and the supernatants collected for Mesoscale IL-2 analysis.
# as §6
# MV-4-11 cells = assay: Cell viability assay (CellTiter-Glo), MV-4-11 proliferation; conditions: Homo sapiens, MV4-11, 72 h, 3 days; for inhibition at 1 µM: compound at 1 μM; for inhibition at 10 µM: compound at 10 μM
# Protocol: as §1, §2
# IL-1β = assay: PBMC assay, LPS-induced IL-1β (Meso Scale); conditions: Homo sapiens, PBMCs, 100 ng/mL LPS 18-24 hrs; for inhibition at 0.1 µM: compound at 0.1 μM; for inhibition at 1 µM: compound at 1 μM; for inhibition at 10 µM: compound at 10 μM
# Protocol: as §3, with “FIG. 1” for “FIG. 2”, “against IL-1-beta” for “against IL-6”, “Cytokines in the media” for “Cytokines”, “activity is” for “activity was”
# as §4, §5, §6
# TNFα = assay: PBMC assay, LPS-induced TNFα (Meso Scale); conditions: Homo sapiens, PBMCs, 100 ng/mL LPS 18-24 hrs; for inhibition at 0.1 µM: compound at 0.1 μM; for inhibition at 1 µM: compound at 1 μM; for inhibition at 10 µM: compound at 10 μM
# Protocol: as §3, with “FIG. 3” for “FIG. 2”, “against TNFα” for “against IL-6”, “Cytokines in the media” for “Cytokines”, “protocol. The negative” for “protocol. Negative”, “activity is” for “activity was”
# as §4, §5, §6
SMILES,inhibition at 10 µM (Molm-13 cells) [%],inhibition at 0.1 µM (IL-6) [%],fold induction at 0.1 µM (IL-2),fold induction at 1 µM (IL-2),inhibition at 1 µM (MV-4-11 cells) [%],inhibition at 10 µM (MV-4-11 cells) [%],inhibition at 0.1 µM (IL-1β) [%],inhibition at 0.1 µM (TNFα) [%],inhibition at 0.1 µM (Molm-13 cells) [%],inhibition at 1 µM (Molm-13 cells) [%],inhibition at 1 µM (IL-6) [%],inhibition at 1 µM (IL-1β) [%],inhibition at 1 µM (TNFα) [%],inhibition at 10 µM (IL-6) [%],fold induction at 10 µM (IL-2),inhibition at 10 µM (IL-1β) [%],inhibition at 10 µM (TNFα) [%]
O=C1CCC[C@H](N2Cc3c(OCc4cccc(CN5CCOCC5)c4)cccc3C2=O)C(=O)N1 [Compound 10],38,27,1.9,2.1,1,35,52,48,,,,,,,,,
O=C1CCC[C@H](N2C(=O)c3cccc(OCc4ccc(CN5CCOCC5)cc4)c3C2=O)C(=O)N1 [Compound 11],,12,1.2,1.9,0,0,21,21,,,,,,,,,
"O=C1CCC[C@H](N2Cc3c(OCc4ccc(CN5CCOCC5)cc4)cccc3C2=O)C(=O)N1 [Compound 1, (S)-3-(4-((4-(morpholinomethyl)benzyl)oxy)-1-oxoisoindolin-2-yl)azepane-2,7-dione]",37,63,2.1,0.8,2,5,83,89,30,15,71,88,93,,,,
"O=C1CCC[C@H](N2Cc3c(OCc4ccc(C(=O)N5CCOCC5)cc4)cccc3C2=O)C(=O)N1 [Compound 8, (S)-3-{4-[(p-Morpholinocarbonlphenyl)methoxy]-2-isoindolinoyl}-2,7-azepanedione]",16,56,1.8,2.3,0,0,73,63,,,,,,,,,
O=C1COC[C@H](N2Cc3c(OCc4ccc(CN5CCOCC5)cc4)cccc3C2=O)C(=O)N1 [Compound 16],,,,0.7,0,99,,,,,5,24,27,78,0.2,52,75
O=C1CCC[C@H](N2Cc3cc(OCc4ccc(CN5CCOCC5)cc4)ccc3C2=O)C(=O)N1 [Compound 15],,,,1.9,38,99,,,,,10,59,65,50,2.1,81,87
"N#Cc1ccc2c(c1OCc1ccc(CN3CCOCC3)cc1)CN([C@H]1CCCC(=O)NC1=O)C2=O [Compound 19, 2-[(S)-2,7-Dioxo-3-azepanyl]-4-{[p-(morpholinomethyl)phenyl]methoxy}-1-oxo-5-isoindolinecarbonitrile]",,12,1.5,2.4,0,0,22,41,,,43,65,73,,,,
Cc1cnc(Nc2ccc(OCCCNCC(=O)NCc3ccc(COc4cc(F)cc5c4CN([C@H]4CCCC(=O)NC4=O)C5=O)cc3)cc2)nc1Nc1cccc(S(=O)(=O)NC(C)(C)C)c1 [Compound 21],,,,0.9,0,97,,,,,8,6,20,7,1,11,30
Cc1cnc(Nc2ccc(OCCCNC(=O)NCc3ccc(COc4cccc5c4CN([C@H]4CCCC(=O)NC4=O)C5=O)cc3)cc2)nc1Nc1cccc(S(=O)(=O)NC(C)(C)C)c1 [Compound 13],,,,0.3,0,50,,,,29,59,51,84,,0.1,,
Cc1cnc(Nc2ccc(OCCCNC(=O)NCc3ccc(COc4cccc5c4CN([C@H]4CCC(=O)NC4=O)C5=O)cc3)cc2)nc1Nc1cccc(S(=O)(=O)NC(C)(C)C)c1 [Compound 20],,1,0.9,1.4,77,88,30,43,93,99,5,43,57,,,,
O=C1CCC[C@H](N2Cc3c(OCc4ccc(C5CCNCC5)cc4)cccc3C2=O)C(=O)N1 [Compound 4],,43,1.3,2.3,0,0,72,81,,,67,86,90,,,,
Cc1cnc(Nc2ccc(OCCCNCC(=O)NCc3ccc(COc4cc(F)cc5c4CN([C@H]4CCC(=O)NC4=O)C5=O)cc3)cc2)nc1Nc1cccc(S(=O)(=O)NC(C)(C)C)c1 [Compound 25],,3,0.9,1,54,90,0,13,,,32,8,25,,,,
Cc1cnc(Nc2ccc(OCCCNCC(=O)NCc3ccc(COc4cccc5c4CN([C@H]4CCC(=O)NC4=O)C5=O)cc3)cc2)nc1Nc1cccc(S(=O)(=O)NC(C)(C)C)c1 [Compound 24],,,,1,44,80,,,,,9,7,10,1,1,23,23
Cc1cnc(Nc2ccc(OCCCNCC(=O)NCc3ccc(COc4cccc5c4CN(C4CCC(=O)NC4=O)C5=O)cc3)cc2)nc1Nc1cccc(S(=O)(=O)NC(C)(C)C)c1 (centres unmarked) [Compound 17],,,,1.5,31,98,,,,,35,75,75,100,0.1,100,100
O=C1CCC[C@H](N2Cc3c(OCc4ccc(CN5CCOCC5)cc4)cc(F)cc3C2=O)C(=O)N1 [Compound 7],,55,1,1.1,0,0,71,62,,,,,,,,,
